Data as given in patent US10479819B2 (priority 2014, dated 2019).
Like-named read-outs stand apart in the source and are kept apart here. Starred links: 1 amine or outer side, 2 acyl side, 3 side chain; linkers in the order of their positions; H or OH if unused. Non-standard residues stand in square brackets, D forms with d. Residues, ends and D or L forms follow the SMILES beside them. Groups on a side chain read outwards from the residue. *: point of attachment. C18 diacid = O=C(O)CCCCCCCCCCCCCCCCC(=O)*; γGlu = O=C(O)[C@H](CCC(=O)[*:2])N[*:1]; Palmitoyl = CCCCCCCCCCCCCCCC(=O)*; PEG2 = NCCOCCOCCC(=O)O; Aib = CC(C)(N)C(=O)O

Legend:
human GCGR = target: T1, human GCGR (Homo sapiens, UniProt P47871); assay: In vitro activity on GCGR, CRE-luciferase HEK-293 cells; type: cell-based
T1 construct: expressed in transfected cells
T1 sequence (P47871 26-477): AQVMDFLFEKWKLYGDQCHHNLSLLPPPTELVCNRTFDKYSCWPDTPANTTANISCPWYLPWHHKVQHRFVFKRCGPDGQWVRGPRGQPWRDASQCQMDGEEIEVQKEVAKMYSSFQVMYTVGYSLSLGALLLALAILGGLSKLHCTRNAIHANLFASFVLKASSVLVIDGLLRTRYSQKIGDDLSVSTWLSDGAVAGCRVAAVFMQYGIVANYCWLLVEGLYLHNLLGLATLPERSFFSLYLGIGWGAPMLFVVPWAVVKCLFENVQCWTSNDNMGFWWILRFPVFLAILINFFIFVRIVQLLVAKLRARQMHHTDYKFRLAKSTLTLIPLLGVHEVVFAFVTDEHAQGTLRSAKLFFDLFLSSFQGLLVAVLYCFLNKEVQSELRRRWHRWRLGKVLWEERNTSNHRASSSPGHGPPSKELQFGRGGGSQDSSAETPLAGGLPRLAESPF
Protocol: 5000 of HEK-293 cells, which are used in CRE-luciferase system and express human GCGR or GLP-1R stably, were inoculated into 384 well plates according to […] DMEM/10% FBS media/well. […] After incubation, […] of luciferase reagent was added directly to each plate and mixed gently for 2 minutes. The plates were placed into an Elmer Perkin plate reader for reading. Concentration curve of the compound was made by drawing software Prism 5, and the EC50 value was calculated.

human GLP-1R = target: T2, human GLP-1R (Homo sapiens, UniProt P43220); assay: In vitro activity on GLP-1R, CRE-luciferase HEK-293 cells; type: cell-based; conditions: for GLP-1R/GCGR: ratio of EC50 GLP-1R to EC50 GCGR
T2 construct: expressed in transfected cells
T2 sequence (P43220 24-463): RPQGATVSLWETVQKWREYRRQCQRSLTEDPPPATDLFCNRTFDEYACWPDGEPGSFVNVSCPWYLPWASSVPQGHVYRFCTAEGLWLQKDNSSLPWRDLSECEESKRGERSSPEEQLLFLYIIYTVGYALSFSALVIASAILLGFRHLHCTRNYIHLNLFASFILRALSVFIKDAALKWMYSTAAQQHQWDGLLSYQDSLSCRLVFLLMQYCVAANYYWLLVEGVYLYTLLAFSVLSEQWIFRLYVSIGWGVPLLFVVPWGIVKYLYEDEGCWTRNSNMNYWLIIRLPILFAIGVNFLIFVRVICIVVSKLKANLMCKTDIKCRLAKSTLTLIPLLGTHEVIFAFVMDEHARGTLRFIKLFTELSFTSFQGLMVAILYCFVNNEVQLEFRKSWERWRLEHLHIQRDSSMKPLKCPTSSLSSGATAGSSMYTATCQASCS
Outline: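 HEK-293 cells stably expressing human GLP-1R or human GCGR with CRE-luciferase reporter, 5000 cells/well in DMEM/10% FBS, exposed to compound. Luminescence read after luciferase reagent; EC50 taken from concentration-response curves.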

[1] = Pharmacokinetic analysis after IV or SC administration in male CD1 mice; conditions: for clinical adverse effect: IV or SC route, male CD1 mice; for Tmax / half-life: mouse, in vivo, iv
Protocol: Pharmacokinetic parameters of the drugs were calculated by methods of model dependence (for data obtained from IV) and model independence (data obtained from SC).

male C57B1/6J mice = assay: Oral glucose tolerance test in male C57B1/6J mice; type: in vivo; conditions: 250 μg/kg; for AUC of blood glucose in all four OGTT curve periods (0-480 min) compared with carrier (PBS): P<0.05; for effect on oral glucose tolerance: male C57B1/6J mice
Protocol: 12-16 week-old male C57B1/6J mice (Nanjing University model animal research center) were randomly divided into groups 8 in each group, according to similar blood glucose (assessed by the blood samples obtained from the tail tip). After fasting (for 6 hours), the animals were administrated, and about 4 hours later, initial blood samples (fasting blood glucose level) were taken. Subsequently, the animals were administrated with an oral dose of glucose, and then put back into their cages (t=0). Blood glucose was measured at t=15 minutes, t=30 minutes, t=60 minutes, t=90 minutes and t=120 minutes. And then the animals were administrated with an oral dose of glucose again, and blood glucose was tracked until 8 hours.

| Compound | EC50 (human GCGR; read-out: GCGR (EC50)) [nM] | GLP-1R/GCGR (human GLP-1R) | EC50 (human GLP-1R; read-out: GLP-1R (EC50)) [nM] | clinical adverse effect [1] | Tmax [1] [h] | half-life [1] [h] | EC50 (human GCGR) [nM] | AUC of blood glucose in all four OGTT curve periods (0-480 min) compared with carrier (PBS) (male C57B1/6J mice) | effect on oral glucose tolerance (male C57B1/6J mice) | EC50 (human GLP-1R) [nM] |
| --- | --- | --- | --- | --- | --- | --- | --- | --- | --- | --- |
| CSCC[C@H](NC(=O)[C@H](CC(C)C)NC(=O)[C@H](Cc1c[nH]c2ccccc12)NC(=O)[C@H](CCC(N)=O)NC(=O)[C@@H](NC(=O)[C@H](Cc1ccccc1)NC(=O)[C@H](CC(=O)O)NC(=O)[C@H](CCC(N)=O)NC(=O)[C@H](C)NC(=O)[C@H](CCCNC(=N)N)NC(=O)[C@H](CCCNC(=N)N)NC(=O)[C@H](CCCCNC(=O)CCOCCOCCNC(=O)CCOCCOCCNC(=O)CC[C@H](NC(=O)CCCCCCCCCCCCCCCCC(=O)O)C(=O)O)NC(=O)[C@H](CC(=O)O)NC(=O)[C@H](CC(C)C)NC(=O)[C@H](Cc1ccc(O)cc1)NC(=O)[C@H](CCCCN)NC(=O)[C@H](CO)NC(=O)[C@H](Cc1ccc(O)cc1)NC(=O)[C@H](CC(=O)O)NC(=O)[C@H](CO)NC(=O)[C@@H](NC(=O)[C@H](Cc1ccccc1)NC(=O)[C@@H](NC(=O)CNC(=O)[C@H](CCC(N)=O)NC(=O)[C@@H](CO)NC(=O)[C@@H](N)Cc1c[nH]cn1)[C@@H](C)O)[C@@H](C)O)C(C)C)C(=O)N[C@@H](CC(N)=O)C(=O)N[C@H](C(=O)NCC(=O)NCC(=O)N1CCC[C@H]1C(=O)N[C@@H](CO)C(=O)N[C@@H](CO)C(=O)NCC(=O)N[C@@H](C)C(=O)N1CCC[C@H]1C(=O)N1CCC[C@H]1C(=O)N1CCC[C@H]1C(=O)N[C@@H](CO)C(N)=O)[C@@H](C)O [Compound 11] | 0.18 | 0.8 | 0.15 |  |  |  |  |  |  |  |
| CCCCCCCCCCCCCCCC(=O)N[C@@H](CCC(=O)NCCOCCOCCC(=O)NCCOCCOCCC(=O)NCCCC[C@H](NC(=O)[C@H](CO)NC(=O)[C@H](Cc1ccc(O)cc1)NC(=O)[C@H](CC(=O)O)NC(=O)[C@H](CO)NC(=O)[C@@H](NC(=O)[C@H](Cc1ccccc1)NC(=O)[C@@H](NC(=O)CNC(=O)[C@H](CCC(N)=O)NC(=O)[C@@H](CO)NC(=O)[C@@H](N)Cc1c[nH]cn1)[C@@H](C)O)[C@@H](C)O)C(=O)N[C@@H](CCCCN)C(=O)N[C@@H](CC(C)C)C(=O)N[C@@H](CC(=O)O)C(=O)NC(C)(C)C(=O)N[C@@H](CCCNC(=N)N)C(=O)N[C@@H](CCCNC(=N)N)C(=O)N[C@@H](C)C(=O)N[C@@H](CCC(N)=O)C(=O)N[C@@H](CC(=O)O)C(=O)N[C@@H](Cc1ccccc1)C(=O)N[C@H](C(=O)N[C@@H](CCC(N)=O)C(=O)N[C@@H](Cc1c[nH]c2ccccc12)C(=O)N[C@@H](CC(C)C)C(=O)N[C@@H](CCSC)C(=O)N[C@@H](CC(N)=O)C(=O)N[C@H](C(=O)NCC(=O)NCC(=O)N1CCC[C@H]1C(=O)N[C@@H](CO)C(=O)N[C@@H](CO)C(=O)NCC(=O)N[C@@H](C)C(=O)N1CCC[C@H]1C(=O)N1CCC[C@H]1C(=O)N1CCC[C@H]1C(=O)N[C@@H](CO)C(N)=O)[C@@H](C)O)C(C)C)C(=O)O [Compound 17] | 0.58 | 1.2 |  |  |  |  |  |  |  |  |
| CSCC[C@H](NC(=O)[C@H](CC(C)C)NC(=O)[C@H](Cc1c[nH]c2ccccc12)NC(=O)[C@H](CCC(N)=O)NC(=O)[C@@H](NC(=O)[C@H](Cc1ccccc1)NC(=O)[C@H](CC(=O)O)NC(=O)[C@H](CCC(N)=O)NC(=O)[C@H](C)NC(=O)[C@H](CCCNC(=N)N)NC(=O)[C@H](CCCNC(=N)N)NC(=O)C(C)(C)NC(=O)[C@H](CC(=O)O)NC(=O)[C@H](CC(C)C)NC(=O)[C@H](CCCCN)NC(=O)[C@H](CCCCNC(=O)CCOCCOCCNC(=O)CCOCCOCCNC(=O)CC[C@H](NC(=O)CCCCCCCCCCCCCCCCC(=O)O)C(=O)O)NC(=O)[C@H](CO)NC(=O)[C@H](Cc1ccc(O)cc1)NC(=O)[C@H](CC(=O)O)NC(=O)[C@H](CO)NC(=O)[C@@H](NC(=O)[C@H](Cc1ccccc1)NC(=O)[C@@H](NC(=O)CNC(=O)[C@H](CCC(N)=O)NC(=O)[C@@H](CO)NC(=O)[C@@H](N)Cc1c[nH]cn1)[C@@H](C)O)[C@@H](C)O)C(C)C)C(=O)N[C@@H](CC(N)=O)C(=O)N[C@H](C(=O)NCC(=O)NCC(=O)N1CCC[C@H]1C(=O)N[C@@H](CO)C(=O)N[C@@H](CO)C(=O)NCC(=O)N[C@@H](C)C(=O)N1CCC[C@H]1C(=O)N1CCC[C@H]1C(=O)N1CCC[C@H]1C(=O)N[C@@H](CO)C(N)=O)[C@@H](C)O [Compound 18] (H-H[dS]QGTFTSDYSK([PEG2-PEG2-γGlu-C18 diacid])KLD[Aib]RRAQDFVQWLMNTGGPSSGAPPPS-NH2; N-terminus assumed) | 0.18 | 4.2 |  |  |  |  |  |  |  |  |
| CCCCCCCCCCCCCCCC(=O)NCCOCCOCCC(=O)NCCOCCOCCC(=O)NCCCC[C@H](NC(=O)[C@H](C)NC(=O)[C@H](C)NC(=O)[C@H](CCCCN)NC(=O)[C@H](CCC(=O)O)NC(=O)[C@H](CC(=O)O)NC(=O)[C@H](CC(C)C)NC(=O)[C@H](Cc1ccc(O)cc1)NC(=O)[C@H](CCCCN)NC(=O)[C@H](CO)NC(=O)[C@H](Cc1ccc(O)cc1)NC(=O)[C@H](CC(=O)O)NC(=O)[C@H](CO)NC(=O)[C@@H](NC(=O)[C@H](Cc1ccccc1)NC(=O)[C@@H](NC(=O)CNC(=O)[C@H](CCC(N)=O)NC(=O)[C@@H](CO)NC(=O)[C@@H](N)Cc1c[nH]cn1)[C@@H](C)O)[C@@H](C)O)C(=O)N[C@@H](CCC(=O)O)C(=O)N[C@@H](Cc1ccccc1)C(=O)N[C@H](C(=O)N[C@@H](CCC(=O)O)C(=O)N[C@@H](Cc1c[nH]c2ccccc12)C(=O)N[C@@H](CC(C)C)C(=O)N[C@@H](CC(C)C)C(=O)N[C@@H](CC(N)=O)C(=O)NCC(=O)NCC(=O)N1CCC[C@H]1C(=O)N[C@@H](CO)C(=O)N[C@@H](CO)C(=O)NCC(=O)N[C@@H](C)C(=O)N1CCC[C@H]1C(=O)N1CCC[C@H]1C(=O)N1CCC[C@H]1C(=O)N[C@@H](CO)C(N)=O)[C@@H](C)CC [Compound 23] (H-H[dS]QGTFTSDYSKYLDEKAAK([PEG2-PEG2-Palmitoyl])EFIEWLLNGGPSSGAPPPS-NH2) |  | 0.30 |  | no clinical adverse effect | ~12 | 4 to 6 | 0.43 | significantly decreased | significantly reduced the oral glucose tolerance | 0.13 |
| CCCCCCCCCCCCCCCC(=O)N[C@@H](CCC(=O)NCCOCCOCCC(=O)NCCOCCOCCC(=O)NCCCC[C@H](NC(=O)[C@H](C)NC(=O)[C@H](C)NC(=O)[C@H](CCCCN)NC(=O)[C@H](CCC(=O)O)NC(=O)[C@H](CC(=O)O)NC(=O)[C@H](CC(C)C)NC(=O)[C@H](Cc1ccc(O)cc1)NC(=O)[C@H](CCCCN)NC(=O)[C@H](CO)NC(=O)[C@H](Cc1ccc(O)cc1)NC(=O)[C@H](CC(=O)O)NC(=O)[C@H](CO)NC(=O)[C@@H](NC(=O)[C@H](Cc1ccccc1)NC(=O)[C@@H](NC(=O)CNC(=O)[C@H](CCC(N)=O)NC(=O)[C@@H](CO)NC(=O)[C@@H](N)Cc1c[nH]cn1)[C@@H](C)O)[C@@H](C)O)C(=O)N[C@@H](CCC(=O)O)C(=O)N[C@@H](Cc1ccccc1)C(=O)N[C@H](C(=O)N[C@@H](CCC(=O)O)C(=O)N[C@@H](Cc1c[nH]c2ccccc12)C(=O)N[C@@H](CC(C)C)C(=O)N[C@@H](CC(C)C)C(=O)N[C@@H](CC(N)=O)C(=O)NCC(=O)NCC(=O)N1CCC[C@H]1C(=O)N[C@@H](CO)C(=O)N[C@@H](CO)C(=O)NCC(=O)N[C@@H](C)C(=O)N1CCC[C@H]1C(=O)N1CCC[C@H]1C(=O)N1CCC[C@H]1C(=O)N[C@@H](CO)C(N)=O)[C@@H](C)CC)C(=O)O [Compound 24] (H-H[dS]QGTFTSDYSKYLDEKAAK([PEG2-PEG2-γGlu-Palmitoyl])EFIEWLLNGGPSSGAPPPS-NH2) |  | 0.28 |  | no clinical adverse effect | ~12 | 4 to 6 | 0.58 | significantly decreased | significantly reduced the oral glucose tolerance |  |
